How the values were obtained:
HMG-CoA reductase = target: T1, HMG-CoA reductase (Sus scrofa, UniProt Q1W675); assay: Hepatic HMG-CoA reductase activity in hypercholesterolemic swine; type: in vivo; conditions: control diet + 50 ppm
T1 construct: The hepatic enzymatic activity of the HMG-CoA reductase decreased approximately 30%; from tissue; host or cells: pig liver, microsomes
T1 sequence (Q1W675 1-885): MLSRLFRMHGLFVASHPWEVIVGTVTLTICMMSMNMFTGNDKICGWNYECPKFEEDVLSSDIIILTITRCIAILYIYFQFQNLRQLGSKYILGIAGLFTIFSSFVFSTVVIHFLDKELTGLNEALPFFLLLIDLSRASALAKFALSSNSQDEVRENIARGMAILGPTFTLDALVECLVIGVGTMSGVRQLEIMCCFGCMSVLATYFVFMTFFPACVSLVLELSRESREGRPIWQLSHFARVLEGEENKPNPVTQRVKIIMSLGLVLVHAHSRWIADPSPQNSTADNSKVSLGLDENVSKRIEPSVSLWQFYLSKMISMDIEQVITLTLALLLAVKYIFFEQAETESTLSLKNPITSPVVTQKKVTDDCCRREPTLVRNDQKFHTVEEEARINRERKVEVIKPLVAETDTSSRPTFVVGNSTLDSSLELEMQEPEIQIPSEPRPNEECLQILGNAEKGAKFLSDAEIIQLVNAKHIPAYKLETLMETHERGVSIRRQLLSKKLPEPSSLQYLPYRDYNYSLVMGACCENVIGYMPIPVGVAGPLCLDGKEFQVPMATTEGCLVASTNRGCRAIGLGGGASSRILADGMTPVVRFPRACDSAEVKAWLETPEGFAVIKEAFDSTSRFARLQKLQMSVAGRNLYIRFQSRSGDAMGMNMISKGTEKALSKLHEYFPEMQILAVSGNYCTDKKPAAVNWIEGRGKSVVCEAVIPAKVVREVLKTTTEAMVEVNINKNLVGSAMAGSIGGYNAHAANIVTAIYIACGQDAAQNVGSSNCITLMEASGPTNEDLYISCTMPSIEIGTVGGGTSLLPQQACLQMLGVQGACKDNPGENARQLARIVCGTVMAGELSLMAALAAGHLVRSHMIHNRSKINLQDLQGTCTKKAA
Text: (§1) All assays conducted on chicken or swine serum were done following the protocols described in A. A. Qureshi et al., "Lowering Of Serum Cholesterol In Hypercholesterolemic Humans By Tocotrienols" (Palmvitee), Am. J. Clin. Nutr., 53, pp. 1021S-26S (1991). All enzymatic assays were done following the protocols described in A. A. Qureshi et al., "Effects of Cereals and Culture Filtrate of Trichoderma viride on Lipid Metabolism of Swine", Lipids, 17, pp. 924 (1982). Plasma insulin, glucagon and TNF levels were measured using radioinnumoassay kits from Ventrex Laboratories, Inc. (Portland, Me.), ICN Biomedicals, Inc. (Costa Mesa, Calif.) and Genzyme Corp. (Cambridge, Mass.), respectively.
(§2) We next measured the effects of various tocotrienols from rice bran on HMG-CoA reductase and cholesterol 7α-hydroxylase in hypercholesterolemic swine. Since pigs are very similar to humans in their cholesterol metabolism, they provide a useful model from which to study hypercholesterolemia and related diseases. […] The serum cholesterol concentration in these swine is typically above 300-500 mg/dl, as compared to 120-160 mg/dl in normal adult swine. As a result, the pigs develop complicated atherosclerotic plaques that closely resemble advanced atherosclerotic lesions found in humans.
(§3) Each group of three 5-month old swine was administered either a control diet or a control diet supplemented with 50 ppm of TRF or 50 ppm of an individual tocotrienol. The samples were prepared as described in Example 11. After a 12 hour fast, serum and plasma samples were taken a 0 hrs, 21 days and 42 days from the start of the feeding period. After taking serum and plasma samples from the pigs at the end of the 42 day period, all of the swine were fasted for a total of 40 hours, followed by a 48 hour refeeding period. One swine from each group was sacrificed at that time and the liver, intestine, lung, heart, loin muscle, adipose tissue and ham muscle were removed.

[1] = system: cholesterol 7α-hydroxylase; assay: Hepatic cholesterol 7α-hydroxylase activity in hypercholesterolemic swine; type: in vivo; conditions: control diet + 50 ppm
Text: as §1, §2, §3

chickens = assay: Antibody titers to sheep red blood cells in chickens; type: in vivo, chicken; conditions: 4 weeks; for IgG antibody titers in serum / IgM antibody titers in serum / Total Ab titers in serum: control diet + 50 ppm, sheep red blood cells i.p.
Method: The model for this study was 6-week old female white leghorn chickens. Each group of 12 chickens was fed an unsupplemented chicken diet or a control diet supplemented with 50 ppm of a tocotrienol or 100 ppm of a commercially available hypercholesterolemic agent (Geraniol or Lovastatin). […] The chickens were fed over a period of 4 weeks, then the blood was drawn. The antibody response was determined by injecting the chickens i.p. with 0.5 ml of a 5% suspension of sheep red blood cells (RBCs) in PBS (v/v) which were previously washed three times. […] Relative IgG levels were determined by using 2-mercaptoethanol preincubation for 30 min. The relative IgM levels were calculated by subtracting the IgG antibody levels from total antibody levels. All antibody levels are expressed as the log base 2 of the highest titer that was needed to hemagglutinate an equal volume of 0.5% RBC suspension.

Structure (SMILES) | HMG-CoA REDUCTASE (HMG-CoA reductase; 21 days) | HMG-CoA REDUCTASE, percentage of 0-time value (HMG-CoA reductase; 21 days) | HMG-CoA REDUCTASE (HMG-CoA reductase; 42 days) | HMG-CoA REDUCTASE, Percentage of Control Activity (HMG-CoA reductase; 42 days) | HMG-CoA REDUCTASE, percentage of 0-time value (HMG-CoA reductase; 42 days) | CHOLESTEROL 7α-HYDROXYLASE, percentage of baseline value ([1]; 21 days) | Cholesterol 7α-hydroxylase ([1]; 21 days) | CHOLESTEROL 7α-HYDROXYLASE, Percentage of Control Activity ([1]; 42 days) | CHOLESTEROL 7α-HYDROXYLASE, percentage of baseline value ([1]; 42 days) | Cholesterol 7α-hydroxylase ([1]; 42 days) | total antibody titer and IgM titer compared to the control (in words) (chickens; 50 ppm in diet) | IgG antibody titers in serum (chickens) | IgM antibody titers in serum (chickens) | Total Ab titers in serum (chickens)
CC(C)=CCC/C(C)=C/CC/C(C)=C/CCC1CCc2cc(O)ccc2O1 (stereo not shown) [P25, 3,4-dihydro-2-(4,8,12-trimethyltrideca-3'(E),7'(E),11'-trienyl)-2H-1-benzopyran-6-ol] | 307.27 pg/min/mg of microsomes | 87.58% | 269.43 pg/min/mg of microsomes | 69.75% | 76.79% | 101.09% | 4.62 pg/min/mg of microsomes | 98.58% | 102.41% | 4.68 pg/min/mg of microsomes | increased | 2.43 ± 1.40 Log 2 | 8.92 Log 2 | 10.30 ± 1.16 Log 2
CC(C)=CCC/C(C)=C/CC/C(C)=C/CCC1(C)CCc2cc(O)c(C)c(C)c2O1 (stereo not shown) [γ-T3, γ-tocotrienol, reference compound] | 300.72 pg/min/mg of microsomes | 86.19% | 280.88 pg/min/mg of microsomes | 73.31% | 80.71% | 100.89% | 4.53 pg/min/mg of microsomes | 98.18% | 102.00% | 4.58 pg/min/mg of microsomes | – | 1.28 Log 2 | 5.83 ± 1.53 Log 2 | 6.60 ± 1.51 Log 2
CC(C)=CCC/C(C)=C/CC/C(C)=C/CCC1(C)CCc2cc(O)ccc2O1 (stereo not shown) [P21, 3,4-dihydro-2-methyl-2-(4,8,12-trimethyltrideca-3' (E),7'(E),11'-trienyl)-2H-1-benzopyran-6-ol] | 304.23 pg/min/mg of microsomes | 89.38% | 275.75 pg/min/mg of microsomes | 73.59% | 81.02% | 99.34% | 4.50 pg/min/mg of microsomes | 98.38% | 102.21% | 4.63 pg/min/mg of microsomes | – | 1.50 ± 1.18 Log 2 | 7.17 Log 2 | 8.67 ± 1.92 Log 2

Reference: patent publication US6239171A, “Tocotrienols and tocotrienol-like compounds and methods for their use” (Lipogenics, Inc., priority 1998, dated 2001)
